The results in this text go back to ChEMBL document CHEMBL4627342, “Novel pyridone EP4 agonists featuring allylic alcohol ω-chains” (Bioorg Med Chem Lett, 2020).

Where only a bound is given, the exact number is not on record here.

Format in all cases: functional, cell-based
Assay [1] addresses T1, Prostaglandin E2 receptor EP1 subtype (Homo sapiens, UniProt P34995).
T1 sequence (P34995 whole entry): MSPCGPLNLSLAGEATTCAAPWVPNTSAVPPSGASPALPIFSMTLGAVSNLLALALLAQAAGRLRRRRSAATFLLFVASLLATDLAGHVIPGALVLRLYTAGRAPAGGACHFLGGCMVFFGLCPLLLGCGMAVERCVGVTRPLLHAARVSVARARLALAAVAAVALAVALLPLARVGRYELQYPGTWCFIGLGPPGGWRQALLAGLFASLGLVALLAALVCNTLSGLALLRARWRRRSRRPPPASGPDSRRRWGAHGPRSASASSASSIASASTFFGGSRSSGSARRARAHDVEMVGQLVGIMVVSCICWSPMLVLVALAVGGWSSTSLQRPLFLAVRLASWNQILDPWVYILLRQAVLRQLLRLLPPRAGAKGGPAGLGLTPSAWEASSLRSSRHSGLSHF
The experiment in a line: Agonist activity at human EP1 receptor expressed in HEK293 cells by calcium-5 dye based FLIPR assay.

The target in assay [2] is Prostaglandin E2 receptor EP2 subtype (Homo sapiens, UniProt P43116). The assay can be described thus: Agonist activity at human EP2 receptor expressed in HEK293 cells by calcium-5 dye based FLIPR assay.
Assay [3] concerns the target T2, Prostaglandin E2 receptor EP3 subtype (Homo sapiens, UniProt P43115).
T2 sequence (P43115 whole entry): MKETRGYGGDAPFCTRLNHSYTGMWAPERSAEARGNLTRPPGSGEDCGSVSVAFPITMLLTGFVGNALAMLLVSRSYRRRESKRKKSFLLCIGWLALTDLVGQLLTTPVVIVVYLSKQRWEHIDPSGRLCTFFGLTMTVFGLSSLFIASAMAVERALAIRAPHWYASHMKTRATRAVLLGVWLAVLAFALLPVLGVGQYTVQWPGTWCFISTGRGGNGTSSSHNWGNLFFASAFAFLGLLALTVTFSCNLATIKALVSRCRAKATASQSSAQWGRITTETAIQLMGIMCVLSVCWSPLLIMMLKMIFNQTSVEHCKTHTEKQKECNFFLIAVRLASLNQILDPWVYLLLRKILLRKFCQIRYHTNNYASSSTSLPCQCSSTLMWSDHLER
The experiment in a line: Agonist activity at human EP3 receptor expressed in HEK293 cells by calcium-5 dye based FLIPR assay.

The target of assay [4] is T3, Prostaglandin E2 receptor EP4 subtype (Homo sapiens, UniProt P35408). The assay can be described thus: Agonist activity at human EP4 receptor expressed in HEK293 cells by calcium-5 dye based FLIPR assay relative to control.
Assay [5] concerns the target T3, Prostaglandin E2 receptor EP4 subtype. The experiment in a line: Agonist activity at human EP4 receptor expressed in HEK293 cells by calcium-5 dye based FLIPR assay.

Chain of Prostaglandin E2 receptor EP2 subtype (P43116 whole entry): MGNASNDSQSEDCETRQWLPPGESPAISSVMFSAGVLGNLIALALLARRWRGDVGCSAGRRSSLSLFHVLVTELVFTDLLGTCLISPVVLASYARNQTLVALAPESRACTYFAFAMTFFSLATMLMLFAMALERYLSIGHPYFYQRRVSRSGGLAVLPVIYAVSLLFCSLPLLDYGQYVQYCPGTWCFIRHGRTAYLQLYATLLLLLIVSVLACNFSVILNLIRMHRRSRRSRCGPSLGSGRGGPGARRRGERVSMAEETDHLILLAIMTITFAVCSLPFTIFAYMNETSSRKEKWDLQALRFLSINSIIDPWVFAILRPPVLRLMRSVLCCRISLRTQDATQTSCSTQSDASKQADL
T3 sequence (P35408 whole entry): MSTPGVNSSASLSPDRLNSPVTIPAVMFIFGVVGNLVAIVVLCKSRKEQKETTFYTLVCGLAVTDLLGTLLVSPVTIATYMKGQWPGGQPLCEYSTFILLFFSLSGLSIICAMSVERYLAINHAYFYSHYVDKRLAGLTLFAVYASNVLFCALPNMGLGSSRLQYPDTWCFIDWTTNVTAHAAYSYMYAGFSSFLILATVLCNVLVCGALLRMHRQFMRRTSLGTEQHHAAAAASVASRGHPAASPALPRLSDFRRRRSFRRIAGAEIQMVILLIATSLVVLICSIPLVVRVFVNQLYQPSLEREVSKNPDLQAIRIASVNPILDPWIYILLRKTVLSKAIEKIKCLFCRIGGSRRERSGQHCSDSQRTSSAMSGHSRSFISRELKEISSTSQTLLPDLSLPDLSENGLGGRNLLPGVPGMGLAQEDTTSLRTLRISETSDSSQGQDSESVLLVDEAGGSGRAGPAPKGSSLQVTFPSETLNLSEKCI

What is called EC50 is the midpoint of the concentration-response curve. As a reminder, the Emax is the greatest response seen or fitted, relative to the assay's reference. As for `CCCCCC(C)(O)/C=C/c1c(Cl)cc(Cl)c(=O)n1CCc1ccc(C(=O)O)cc1` (centres undefined), the concentration for a half-maximal effect (EC50) in assay [1] was above 10000 nM; in assay [2], 4700 nM; in assay [3], above 10000 nM; in assay [5] it was 29 nM. Also, the Emax in assay [4] is 139%.
On to `CCCCCC(O)/C=C/c1c(Cl)cc(Cl)c(=O)n1CCCCCCC(=O)O` (centres undefined), for which the EC50 in assay [1] was above 10000 nM; in assay [2], above 10000 nM; in assay [3] it was above 10000 nM; in assay [5], 160 nM. The maximum response (Emax) in assay [4] was determined as 123%.
Regarding `CCCCCC(O)/C=C/c1c(Br)cc(Br)c(=O)n1CCCCCCC(=O)O` (centres undefined), the EC50 is above 10000 nM in assay [1], above 10000 nM in assay [2], above 10000 nM in assay [3] and 360 nM in assay [5]. For the same molecule, the Emax in assay [4] was 99%.
On to `CCCCCC(O)CCc1cccc(=O)n1CCCCCCC(=O)O` (centres undefined), for which the half-maximal effective concentration (EC50) is 2350 nM in assay [1], above 10000 nM in assay [2], 2700 nM in assay [3] and 550 nM in assay [5]. In addition, the maximal response (Emax) in assay [4] was found to be 103%.
As to `CCCCCC(O)/C=C/c1c(Cl)cc(Cl)c(=O)n1CCc1ccc(C(=O)O)cc1` (stereo in doubt; 9) [listing 1 of 2 here], the EC50 in assay [5] turned out to be 13 nM.
For `CCCCCC(O)CCc1c(Cl)cc(Cl)c(=O)n1CCc1ccc(C(=O)O)cc1` (centres undefined), the EC50 in assay [1] is above 10000 nM; in assay [2], 1500 nM; in assay [3], above 10000 nM; in assay [5], 4.9 nM. The Emax in assay [4] was 138%.
`CCCCCC(O)/C=C/c1c(Cl)cc(Cl)c(=O)n1CCc1ccc(C(=O)O)cc1` (single isomer, unassigned; ent-9) [listing 1 of 2 here]: the EC50 in assay [5] stood at 60 nM.
Take `CCCCCC(O)/C=C/c1c(Cl)cc(Cl)c(=O)n1CCc1ccc(C(=O)O)cc1` (single isomer, unassigned; ent-9) [listing 2 of 2 here]: in assay [4], the Emax was 136%.
Same read-out and setting: the same measure for `CCCCCC(O)/C=C/c1c(Cl)cc(Cl)c(=O)n1CCc1ccc(C(=O)O)cc1` (racemic) [listing 1 of 2 here]: 129%; for `CCCCCC(O)/C=C/c1c(Cl)cc(Cl)c(=O)n1CCc1ccc(C(=O)O)cc1` (stereo in doubt; 9) [listing 2 of 2 here]: 146%.
Turning to `CCCCCC(O)/C=C/c1c(Cl)cc(Cl)c(=O)n1CCc1ccc(C(=O)O)cc1` (racemic) [listing 2 of 2 here], the EC50 in assay [1] is above 10000 nM; in assay [2] it was above 10000 nM; in assay [3] it was above 10000 nM; in assay [5], 7 nM.
